We go through eight compounds from patent EP1020434A1, “3-AMIDINOANILINE DERIVATIVES, ACTIVATED BLOOD COAGULATION FACTOR X INHIBITORS, AND INTERMEDIATES FOR PRODUCING BOTH” (priority 1997, dated 1999).

Counter-ions that a name gives are not always drawn. Like-named read-outs stand apart in the source and are kept apart here.

In data set [1] the target is T1, human activated blood coagulation factor X (Homo sapiens, UniProt P00742).
T1 construct: purchased Calbiochem Corporation
Put plainly: Measurement of inhibitory activity for activated blood coagulation factor X (chromogenic substrate S-2222). The class given is biochemical. On the procedure:
Measurement of inhibitory activity for activated blood coagulation factor X
Five µl of dimethylsulfoxide solution of test compound, 375 µl of tris-hydrochloric acid buffer (pH 8.4) and 100 µl of 1 mM S-2222 (Daiichi Pure Chemicals) aqueous solution were mixed. Then 20 µl of 0.6 U/ml human activated blood coagulation factor X (Calbiochem Corporation) in gelatin-glycine buffer was added and the mixture was incubated for 10 minutes at 37 °C. The reaction was terminated with the addition of 100 µl of 60 % acetic acid and absorbance (405 nm) was measured.
The group without the test compound was defined as control and the group without human activated blood coagulation factor X was defined as blank.

In another data set the test system is normal human plasma. Briefly: Measurement of anticoagulation effects (plasma prothrombin time). The conditions noted are these: CT2, concentration that prolonged the clotting time (prothrombin time) of control by 2 times. The class given is biochemical. As to the method: Measurement of anticoagulation effects (plasma prothrombin time)
Two µl of dimethylsulfoxide solution of test compound which was put in a process tube was incubated at 37 °C, and 50 µl of normal human plasma (George King Bio-Medical Inc.) was mixed. One minute later, 100 µl of plasma prothrombin time reagent (Neoplastin Plus®, Boehringer Mannheim) was added into the mixture. Prothrombin time was measured with ST4 (Boehringer Mannheim).
The group without the test compound was defined as control. The concentration of test compound that prolonged the clotting time of control by 2 times (CT2) was obtained and this value was used as the index of anticoagulation activity.

The target of a further data set is T2, human thrombin (Homo sapiens, UniProt P00734).
T2 construct: human thrombin (Sigma Chemical Company); purchased Sigma Chemical Company
Put plainly: Measurement of inhibitory activity for thrombin (chromogenic substrate S-2238). It counts as biochemical. On the procedure: Measurement of inhibitory activity for thrombin
Five µl of dimethylsulfoxide solution of test compound, 375 µl of tris-hydrochloric acid buffer (pH 8.4) and 100 µl of 1 mM S-2238 (Daiichi Pure Chemicals) aqueous solution were mixed. Then 20 µl of 2.0 U/ml human thrombin (Sigma Chemical Company) in gelatin-glycine buffer was added and the mixture was incubated for 10 minutes at 37 °C. The reaction was terminated with the addition of 100 µl of 60 % acetic acid and absorbance (405 nm) was measured.
The group without the test compound was defined as control and the group without human thrombin was defined as blank. […]

The test system of the next data set is Male Wistar rats. Put plainly: Acute toxicity test. It counts as in vivo. On the procedure: Male Wistar rats aged 7 weeks (SLC) were divided into several groups consisting of 5 rats. The test compound was dissolved at the concentration that became the administration volume as 2.5 ml/kg. The solution was administered through the tail vein at an infusion rate of 1 ml/minute. Observations were performed at constant intervals, and survival rate was judged for 24 hours.

Setting [2] is: IC50, concentration showing 50 % inhibition of control, 10 minutes at 37 °C, pH 8.4, read-out: Inhibitory activity for activated blood coagulation factor X.
Where [3] appears, read: IC50, concentration showing 50 % inhibition of control, 10 minutes at 37 °C, pH 8.4, read-out: Inhibitory activity for thrombin.

T1 sequence (P00742 235-488 limits assumed): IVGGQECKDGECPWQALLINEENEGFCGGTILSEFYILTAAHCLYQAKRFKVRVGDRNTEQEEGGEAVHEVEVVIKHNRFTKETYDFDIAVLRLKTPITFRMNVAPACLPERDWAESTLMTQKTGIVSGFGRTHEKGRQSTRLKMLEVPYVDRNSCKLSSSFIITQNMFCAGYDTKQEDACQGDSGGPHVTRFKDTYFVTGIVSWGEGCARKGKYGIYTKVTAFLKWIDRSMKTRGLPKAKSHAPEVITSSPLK
T1 sequence (P00742 41-179 partner limits assumed): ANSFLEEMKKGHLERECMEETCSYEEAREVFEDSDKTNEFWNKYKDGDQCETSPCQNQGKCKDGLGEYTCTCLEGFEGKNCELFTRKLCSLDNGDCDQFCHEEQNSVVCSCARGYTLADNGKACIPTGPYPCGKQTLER

Take `CC(C)=CCN(CC(=O)Nc1ccc(OC(C)C)cc1)c1cccc(C(=N)N)c1.Cl` [Compound 22, 2-[N-(3-Amidinophenyl)-N-(3-methyl-2-butenyl)amino]-N-(4-isopropoxyphenyl)acetamide hydrochloride]: the IC50 worked out at 0.015 µM in data set [1] (setting [2]) and 13 µM at human thrombin (setting [3]). This compound also returned an Anticoagulation effect in the data set on normal human plasma of 0.29 µM.

For the compound `CC(=N)N1CCC(c2ccc(NC(=O)CN(Cc3cccc(O)c3)c3cccc(C(=N)N)c3)cc2)CC1.Cl.Cl` [Compound 52, 2-[N-(3-Amidinophenyl)-N-(3-hydroxybenzyl)amino]-N-[4-[1-(1-iminoethyl)piperidin-4-yl]phenyl]acetamide dihydrochloride], the IC50 in data set [1] (setting [2]) was found to be 0.016 µM; on human thrombin (setting [3]), 77 µM. Besides, the Anticoagulation effect in the data set with normal human plasma was 0.17 µM.

For the compound `CC(=N)N1CCC(c2ccc(NC(=O)CN(CC=C(C)C)c3cccc(C(=N)N)c3)cc2)CC1.Cl.Cl` [Compound 55, 2-[N-(3-Amidinophenyl)-N-(3-methyl-2-butenyl)amino]-N-[4-[1-(1-iminoethyl)piperidin-4-yl]phenyl]acetamide dihydrochloride], the IC50 in data set [1] (setting [2]) came out at 0.004 µM; on human thrombin (setting [3]), 15 µM. For the same compound, in the data set with normal human plasma, the Anticoagulation effect was determined as 0.091 µM.

On to `CC(=N)N1CCC(Oc2ccc(NC(=O)CN(Cc3ccccc3)c3cccc(C(=N)N)c3)cc2)CC1` [Compound 58, 2-[N-(3-Amidinophenyl)-N-benzylaminol-N-[4-[1-(1-imino-ethyl)piperidin-4-yloxy]phenyl]acetamidedihydrochloride], for which the results for the IC50 (in data set [1]; on human thrombin) were 0.042 µM and 100 µM, respectively. Further, the Anticoagulation effect with normal human plasma is 0.24 µM.

In the data set with normal human plasma, `CC(=N)N1CCC(c2ccc(NC(=O)CN(Cc3cccc(OCC(=O)O)c3)c3cccc(C(=N)N)c3)cc2)CC1.Cl.Cl` [Compound 62, 2-[N-(3-Amidinophenyl)-N-(3-carboxymethyloxybenzyl)amino]-N-[4-[1-(1-iminoethyl)piperidin-4-yl]phenyl]acetamide dihydrochloride] gave an Anticoagulation effect of 0.21 µM. The IC50 at human thrombin (setting [3]) is 206 µM. Also, the Death case in the data set with Male Wistar rats (30 mg/kg through the tail vein, groups of 5 rats, survival judged for 24 hours) is 0/5. For the same compound, the “death in acute toxicity test” value in the data set with Male Wistar rats (rats, intravenous administration, dose of 30 mg/kg) is recorded as “no death was observed”.

Take `CC(=N)N1CCC(c2ccc(NC(=O)CN(Cc3cccc4ccccc34)c3cccc(C(=N)N)c3)cc2)CC1` [Compound 65, 2-[N-(3-Amidinophenyl)-N-(1-naphthylmethyl)amino]-N-[4-[1-(1-iminoethyl)piperidin-4-yl]phenyl]acetamide dihydrochloride]: the IC50 in data set [1] (setting [2]) stood at 0.008 µM; at human thrombin (setting [3]), 42 µM.

Regarding `CC(=N)N1CCC(c2ccc(NC(=O)CN(Cc3nc[nH]c3C)c3cccc(C(=N)N)c3)cc2)CC1.Cl.Cl` [Compound 74, 2-[N-(3-Amidinophenyl)-N-(5-methylimidazol-4-ylmethyl)amino]-N-[4-[1-(1-iminoethyl)piperidin-4-yl]phenyl]acetamide dihydrochloride], the IC50 in data set [1] (setting [2]) is 0.019 µM; on human thrombin (setting [3]) it was 177 µM. Further, the Anticoagulation effect in the data set on normal human plasma was 0.30 µM.

As for `CC(=N)N1CCC(Oc2ccc(NC(=O)CNc3cccc(C(=N)N)c3)cc2)CC1` [Compound 79, 2-(3-Amidinophenylamino)-N-[4-[1-(1-iminoethyl)piperidin-4-yloxy]phenyl]acetamide dihydrochloride], the IC50 in data set [1] (setting [2]) worked out at 0.096 µM; on human thrombin (setting [3]) it was 308 µM.
